From ChEMBL document CHEMBL5247643, “Discovery and Characterization of BAY-805, a Potent and Selective Inhibitor of Ubiquitin-Specific Protease USP21” (J Med Chem, 2023)
Calls of active or inactive are those of the source. The calls are words filed in the database; no cut-off is given here.

Key:
Ataxin-3 (Homo sapiens) = Ataxin-3 (Homo sapiens) (UniProt P54252); experiment: Inhibition of human Ataxin-3 (1 to 370 residues) expressed in Escherichia coli BL21 (DE3) using ubiquitin rhodamine 110 as substrate assessed as remaining enzyme activity at 10 to 50 uM by fluorometric assay; details: dose 10-50 µM
[1] = biological target: T1, Ubiquitin carboxyl-terminal hydrolase 21 (Homo sapiens) (UniProt Q9UK80); experiment: Inhibition of human USP21 (209 to 563 residues) expressed in Escherichia coli BL21 (DE3) using ubiquitin rhodamine 110 as substrate assessed as remaining enzyme activity at 10 to 50 uM by fluorometric assay; details: dose 10-50 µM
T1 sequence (whole entry): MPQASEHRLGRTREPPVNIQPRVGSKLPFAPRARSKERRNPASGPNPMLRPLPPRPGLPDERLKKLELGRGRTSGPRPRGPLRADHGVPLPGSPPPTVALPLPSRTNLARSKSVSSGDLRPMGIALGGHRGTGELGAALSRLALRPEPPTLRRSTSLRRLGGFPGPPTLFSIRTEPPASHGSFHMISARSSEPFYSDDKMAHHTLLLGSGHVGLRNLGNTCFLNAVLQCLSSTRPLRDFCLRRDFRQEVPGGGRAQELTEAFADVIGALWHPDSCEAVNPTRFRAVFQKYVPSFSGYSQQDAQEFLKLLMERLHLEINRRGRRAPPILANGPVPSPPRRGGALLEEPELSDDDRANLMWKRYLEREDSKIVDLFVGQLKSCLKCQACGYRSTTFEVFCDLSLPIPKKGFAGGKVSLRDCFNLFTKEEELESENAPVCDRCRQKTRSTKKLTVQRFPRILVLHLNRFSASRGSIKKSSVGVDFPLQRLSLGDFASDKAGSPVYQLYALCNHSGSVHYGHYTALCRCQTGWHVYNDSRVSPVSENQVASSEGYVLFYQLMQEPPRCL

[2] = biological target: T2, Ubiquitin carboxyl-terminal hydrolase 4 (Homo sapiens) (UniProt Q13107); experiment: Inhibition of human USP4 (1 to 932 residues) expressed in Sf9 cells using ubiquitin rhodamine 110 as substrate assessed as remaining enzyme activity at 10 to 50 uM by fluorometric assay; details: dose 10-50 µM
T2 sequence (whole entry): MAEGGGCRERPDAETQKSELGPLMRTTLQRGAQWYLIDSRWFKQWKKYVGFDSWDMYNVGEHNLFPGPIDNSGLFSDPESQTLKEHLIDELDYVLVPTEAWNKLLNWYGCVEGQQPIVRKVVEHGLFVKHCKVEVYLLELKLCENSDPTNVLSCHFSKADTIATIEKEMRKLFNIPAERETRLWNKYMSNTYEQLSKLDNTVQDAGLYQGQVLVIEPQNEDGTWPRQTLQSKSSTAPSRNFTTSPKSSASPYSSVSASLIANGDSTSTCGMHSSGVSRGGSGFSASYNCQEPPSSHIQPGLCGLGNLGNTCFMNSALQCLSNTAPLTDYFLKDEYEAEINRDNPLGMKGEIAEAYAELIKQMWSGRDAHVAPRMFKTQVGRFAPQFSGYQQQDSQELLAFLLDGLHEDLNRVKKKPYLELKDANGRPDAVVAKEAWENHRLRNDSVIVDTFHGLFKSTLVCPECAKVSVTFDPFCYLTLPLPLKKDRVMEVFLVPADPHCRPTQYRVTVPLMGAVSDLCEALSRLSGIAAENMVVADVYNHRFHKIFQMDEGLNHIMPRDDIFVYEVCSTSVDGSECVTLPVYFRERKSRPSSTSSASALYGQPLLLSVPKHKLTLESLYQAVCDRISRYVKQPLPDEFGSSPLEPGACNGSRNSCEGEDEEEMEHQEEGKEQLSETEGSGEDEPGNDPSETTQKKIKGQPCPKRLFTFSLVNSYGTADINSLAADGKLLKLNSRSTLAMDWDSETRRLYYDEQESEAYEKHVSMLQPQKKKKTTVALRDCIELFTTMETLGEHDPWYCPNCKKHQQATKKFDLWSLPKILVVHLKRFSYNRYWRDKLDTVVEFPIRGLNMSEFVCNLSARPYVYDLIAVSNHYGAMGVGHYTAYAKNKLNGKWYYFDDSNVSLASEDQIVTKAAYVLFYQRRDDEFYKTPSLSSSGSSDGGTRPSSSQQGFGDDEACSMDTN

[3] = biological target: T3, Ubiquitin carboxyl-terminal hydrolase 2 (Homo sapiens) (UniProt O75604); experiment: Inhibition of human USP2 (251 to 605 residues) expressed in Escherichia coli BL21 (DE3) using ubiquitin rhodamine 110 as substrate assessed as remaining enzyme activity at 10 to 50 uM by fluorometric assay; details: dose 10-50 µM
T3 sequence (whole entry): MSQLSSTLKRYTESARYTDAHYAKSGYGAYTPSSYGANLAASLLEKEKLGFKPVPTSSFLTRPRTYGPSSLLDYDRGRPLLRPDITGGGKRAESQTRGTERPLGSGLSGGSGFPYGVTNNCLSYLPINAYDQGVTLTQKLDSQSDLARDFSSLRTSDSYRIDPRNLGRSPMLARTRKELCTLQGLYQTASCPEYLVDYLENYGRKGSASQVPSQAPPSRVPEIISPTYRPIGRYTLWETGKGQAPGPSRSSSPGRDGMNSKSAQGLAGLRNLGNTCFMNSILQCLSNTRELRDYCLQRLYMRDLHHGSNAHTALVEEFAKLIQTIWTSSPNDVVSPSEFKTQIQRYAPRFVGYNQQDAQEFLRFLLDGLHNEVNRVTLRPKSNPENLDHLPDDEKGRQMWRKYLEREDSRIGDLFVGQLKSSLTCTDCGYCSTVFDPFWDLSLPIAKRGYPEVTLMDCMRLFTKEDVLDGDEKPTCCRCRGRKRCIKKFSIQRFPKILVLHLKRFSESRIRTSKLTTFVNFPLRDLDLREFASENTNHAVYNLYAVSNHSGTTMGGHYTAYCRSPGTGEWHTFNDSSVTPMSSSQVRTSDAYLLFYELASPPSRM

[4] = biological target: T2, Ubiquitin carboxyl-terminal hydrolase 4 (Homo sapiens); experiment: Inhibition of human USP4 using ubiquitin rhodamine 110 as substrate at 10 to 50 uM by fluorometric assay; details: dose 10-50 µM
A549 = experiment: Antiproliferative activity against human A549 cells assessed as reduction in cell viability up to 30 uM incubated for 72 hrs by CellTiter-Glo luminescent assay; assay type: functional, cell-based

Chain of Ataxin-3 (Homo sapiens) (P54252 whole entry, the tested form may be a part): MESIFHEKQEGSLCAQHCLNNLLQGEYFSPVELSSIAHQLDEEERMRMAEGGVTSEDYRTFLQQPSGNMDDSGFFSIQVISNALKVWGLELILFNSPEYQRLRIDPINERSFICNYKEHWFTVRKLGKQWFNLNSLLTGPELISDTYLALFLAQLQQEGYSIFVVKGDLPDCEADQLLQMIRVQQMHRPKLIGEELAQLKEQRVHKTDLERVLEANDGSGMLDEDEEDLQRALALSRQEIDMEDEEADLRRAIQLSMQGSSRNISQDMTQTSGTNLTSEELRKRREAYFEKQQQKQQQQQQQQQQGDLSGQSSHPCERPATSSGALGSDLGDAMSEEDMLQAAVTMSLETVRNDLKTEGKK

| Activity [1] [%] | Activity [2] [%] | Activity [3] [%] | inhibition [4] | SMILES | Activity (Ataxin-3 (Homo sapiens)) [%] | Activity (A549) |
| --- | --- | --- | --- | --- | --- | --- |
| < 50 | < 50 | < 50 | – | CC(NC(=O)C1CCCC1)C(=O)Nc1nnc(Cc2ccc([N+](=O)[O-])cc2)s1 (racemic) | < 50 | – |
| – | – | – | inactive | CC(C)C[C@H](NC(=O)C1(C(F)(F)F)CCCCC1)C(=O)Nc1nnc(Cc2ccc(C#N)cc2)s1 | – | inactive |
